Source: patent US20260257992A1, “AGONISTS OF SMALL HETERODIMER PARTNER FOR CANCER THERAPY” (THE BOARD OF TRUSTEES OF THE UNIVERSITY OF ILLINOIS, priority 2023, published 2026)

Assays:
BMDM viability = test: Resazurin cell viability assay in BMDMs; format: cell-based, mouse; details: increasing doses up to 100 μM
Procedure: In order to better assess the potential cellular toxicity of DSHN-OMe, we treated BMDMs with increasing doses and measured their ability to reduce resazurin to resorufin (similar to the MTT viability assay).
Resazurin cell viability assay. 20,000 cells were seeded into 96 well f-bottom, black plates (Corning Costar) and cell viability was measured using 100 μL resazurin per well at 0.3 mg/mL (Acros Organics). The fluorescence signal was quantified by plate reader (560 nm excitation/590 nm emission) at 2-3 h.

RAW 264.7 cells = test: Compound uptake assay (LC-MS/MS); format: in vitro ADME; details: for Intracellular compound concentration, 4 h / Intracellular compound concentration, 8 h / Intracellular compound concentration, 24 h: 50 μM
Procedure: Conversion of a carboxylic acid to an ester is often associated with better cellular uptake. Therefore, we explored whether the kinetics of uptake differed between the two compounds, using RAW 264.7 cells as a model for myeloid immune cells. RAW 264.7 cells were treated with 50 μM of DSHN or DSHN-OME for 4, 8 or 24 h. At the appropriate time-point cells were washed and subjected to LC-MS/MS to quantify intracellular compound concentration. […] At 8 h, 12.6 nM DSHN was detected.
Compound Uptake Assay. Cellular uptake of DSHN and DSHN-OMe was determined in RAW 264.7 cells cultured in 60×15 mm tissue culture dishes. Cells were treated with vehicle (0.1% DMSO), 50 μM DSHN or 50 μM DSHN-OMe for 4 h, 8 h, or 24 h. After incubation, cells were harvested, washed with PBS and cell pellets were incubated at −80° C. freezer. Next, cell pellets were resuspended in 200 μL 70:30 MeOH:H2O and sonicated to lyse cells. Debris from lysed cell suspension was removed by centrifugation. Resulting supernatant was analyzed by LC-MS/MS.

4T1 metastatic lesions = test: Outgrowth of established 4T1 lung metastatic lesions (intravenous graft); format: in vivo, mouse; details: for Outgrowth of 4T1 metastatic lesions, combined with αPDL1: compound combined with αPDL1; for Outgrowth of established 4T1 metastatic lesions, single agent: lesions established 3 d before treatment
Source text: FIG. 3A-3F. DSHN, a tool small molecule agonist of NR0B2 reduces macrophage/dendritic cell induced Treg expansion and tumor growth in murine models. […] (B) Dendritic cells (left-CD11B^+; CD11C^+) and CD4^+ T cells (right) were isolated from MMTV-PyMT tumors by FACS, and treated with vehicle or DSHN for 3d. The resulting frequency of Treg (CD4^+; CD25^+; FoxP3^+) was quantified by flow cytometry (right graph), (N=3-5/group, t test). […] The percentage of divided CD8+ T cells in the second round was quantified. (D) DSHN increases efficacy of αPDL1 therapy on orthotopic E0771 tumors. An optimal number of E0771 cells were grafted into FoxP3-EGFP mice and allowed to grow until tumors reached 100 mm^3. Mice were euthanized on day 19 (waterfall plot, Fisher's exact test). (E) DSHN increases efficacy of αPDL1 therapy on orthotopic 4T1 tumors. 4T1 cells were orthotopically grafted into mice and allowed to establish for 5d prior to treatment start. Mice were euthanized on day 16 (waterfall plot, Fisher's exact test). (F) DSHN reduces metastatic outgrowth of 4T1 tumors and enhances efficacy of αPDL1 compared to placebo (p) (2-way ANOVA followed by Šidák's multiple comparison test for day 16). 4T1 cells were grafted intravenously, and lung metastatic lesions allowed to establish for 3d before treatment commenced. At the end of the study, lungs were removed and imaged ex vivo, quantified data indicated (N=10, 1-way ANOVA followed by Newman-Keuls multiple comparison test). Representative luciferase images shown to the right. * or different letters denote P<0.05 using indicated statistical test.
FIG. 7A-7I. DSHN-OMe reduces tumor and metastatic growth in murine models, in a myeloid cell-NR0B2 dependent manner. (A) E0771 cells were grafted into control mice (NR0B2^+/+; LysMCre^+) or mice where NR0B2 was knocked out in myeloid immune cells (NR0B2^fl/fl; LysMCre^+). 8 days post-graft, daily treatment with placebo or DSHN-OMe was initiated and subsequent tumor growth followed through time. Different letters denote statistical difference on the final measurement (day 21, 2-Way ANOVA followed by Šidák's post-hoc, N=5-8). (B) Waterfall plot illustration of data in (A) showing tumor volume at final day of measurement. Asterisk indicates significant difference (Chi-squared test, P<0.05). (C) Lewis Lung cells were grafted into control mice (NR0B2^+/+; LysMCre^+) or mice where NR0B2 was knocked out in myeloid immune cells (NR0B2^fl/fl; LysMCre^+). 10 days post-graft, daily treatment with placebo or DSHN-OMe was initiated and subsequent tumor growth followed through time. […] (G) EMT6 metastatic lungs were assessed for Ki67 mRNA and (H) FOXP3 mRNA. (I) EMT6 metastatic lungs were assessed for CD8+ cytotoxic T cells (CD8+). […]

[1] = system: inflammasome associated genes; test: Inflammasome associated gene expression in BMDMs (LPS, nigericin); format: cell-based, mouse
Procedure: FIG. 8A-8D. DSHN-OMe attenuates induction of inflammasome associated genes when BMDMs are treated with both LPS and nigericin, not LPS alone. * indicates P<0.05 when comparing to DMSO.
Inflammasome activation, RNA extraction, quantitative real PCR. When comparing inflammasome responses, BMDMs were treated with 500 ng/mL LPS for 4 h 37° C. in complete RPMI 1640. After 4 hr priming, 15 μM Nigericin was added for 45 mins at 37° C. Next, media was removed, washed with PBS and inflammasome activation was assessed using qPCR or inflammasome caspase-1 activity was measured using Caspase-Glo® 1 inflammasome assay kit (G9951; Promega) according to manufacturer's instructions.

Difference in intracellular concentration, DSHN-OMe versus DSHN (RAW 264.7 cells) [log]	SMILES	BMDM viability (resazurin reduction) (BMDM viability)	Intracellular compound concentration, 4 h (RAW 264.7 cells)	Intracellular compound concentration, 8 h (RAW 264.7 cells)	Intracellular compound concentration, 24 h (RAW 264.7 cells)	Outgrowth of 4T1 metastatic lesions, combined with αPDL1 (4T1 metastatic lesions)	Outgrowth of established 4T1 metastatic lesions, single agent (4T1 metastatic lesions)	Expression of inflammasome associated genes, priming and activation signal [1]
	CCN(CC)S(=O)(=O)c1cccc2cc(C(=O)O)c(O)cc12 [DSHN, reference compound]	no significant difference was observed in viability up to 100 μM	below detection limits	12.6 nM	no intracellular DSHN was detected	reduced outgrowth even further than DSHN alone	slowed the growth of metastatic lesions	able to blunt the expression of inflammasome associated genes
> 2	CCN(CC)S(=O)(=O)c1cccc2cc(C(=O)OC)c(O)cc12 [DSHN-OMe, Methyl 5-(N,N-diethylsulfamoyl)-3-hydroxy-2-naphthoate]	no significant difference was observed in viability up to 100 μM	7,481 nM	19,279 nM	11,089 nM	did not significantly influence the effects of DSHN-OMe	significantly reduced the outgrowth of established 4T1 metastatic lesions	able to blunt the expression of inflammasome associated genes
